Measured values as given in patent US10208074B2, “Pyrazole compounds and method for making and using the compounds” (Rigel Pharmaceuticals, Inc., priority 2015, dated 2019).
pEC50: −log10 of the molar value. Counter-ions that a name gives are not always drawn. Like-named read-outs stand apart in the source and are kept apart here.

Legend:
IL-23 (p19/p40) = assay: IL23-p19 ELISA, Dendritic, LPS (compound screening using DC cells); format: cell-based, Human; conditions: PBMC-derived DC cells, IFNγ primed, LPS 1 μg/ml, 18 hours, 10 pt, read-out: IL23-p19 ELISA, Dendritic, LPS, 10 pt, EC50
Method in brief: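 IL-23 in supernatants quantified by sandwich ELISA (anti-p19 capture, biotinylated anti-p40 detection, chemiluminescent readout) after 18 h LPS (1 μg/ml) stimulation. Cells were monocyte-derived DCs (GM-CSF/IL-4, 7 d), IFNγ-primed 24 h and given compound 1 h before LPS; viability by CellTiter Glo.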

IL-23p19 = assay: LPS induced IL23p19 in THP-1 cells (with IFNγ primed) assay; format: cell-based, Human; conditions: THP-1 cells, IFNγ primed, LPS 1 ug/mL, 18 hours, 10 pt, read-out: IL23-p19 ELISA, THP1-IFNy, LPS, 10 pt EC50
Method in brief: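 Readout is secreted IL-23p19, quantified by chemiluminescent sandwich ELISA after 18 h LPS (1 ug/mL) stimulation of THP-1 cells that had been IFNγ-primed (50 ng/mL, ~18 h) and given compound 1 h beforehand at 37 °C. EC50 derived by curve fit; cytotoxicity tracked with Cell Titer Glo.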

pEC50 (IL-23 (p19/p40); Homo sapiens, 18 h)	pEC50 (IL-23p19; Homo sapiens, THP-1, 18 h)	Structure (SMILES)	other results
7.15	7.50	O=C(Nc1cn([C@H]2C[C@@H](OCC(F)(F)F)C2)nc1-c1ncccc1F)c1ccc(-c2cn[nH]c2)o1 [Compound I-152, N-(3-(3-fluoropyridin-2-yl)-1-((1s,3s)-3-(2,2,2-trifluoroethoxy)cyclobutyl)-1H-pyrazol-4-yl)-5-(1H-pyrazol-4-yl)furan-2-carboxamide formate]	
		COC1CC(n2cc(NC(=O)c3ccc(-c4cn[nH]c4)o3)c(-c3ccccn3)n2)C1 (stereo not drawn) [Compound I-71, N-{1-(3-Methoxycyclobutyl)-3-(pyridine-2-yl)-1H-pyrazol-4-yl}-5-(1H-pyrazol-4-yl)furan-2-carboxamide, formate salt, Cis isomer]	pEC50 (IL-23 (p19/p40)): 7.65; pEC50 (IL-23p19): 7.58
7.59	6.55	O=C(Nc1cn(CC(F)(F)F)nc1-c1ccccn1)c1ccc(-c2cn[nH]c2)o1 [Compound I-117, 5-(1H-pyrazol-4-yl)-N-(3-(pyridin-2-yl)-1-(2,2,2-trifluoroethyl)-1H-pyrazol-4-yl)furan-2-carboxamide]	
4.96	3.86	COCCn1cc(NC(=O)c2ccc(-c3c[nH]nc3C(F)(F)F)o2)c(-c2ccccn2)n1 [Compound I-13, N-(1-(2-methoxyethyl)-3-(pyridin-2-yl)-1H-pyrazol-4-yl)-5-(3-(trifluoromethyl)-1H-pyrazol-4-yl)furan-2-carboxamide]	
7.34	7.35	O=C(Nc1cn([C@H]2C[C@@H](OCC(F)(F)F)C2)nc1-c1ncccc1F)c1csc(-c2cn[nH]c2)n1 [II-165, N-(3-(3-fluoropyridin-2-yl)-1-((cis)-3-(2,2,2-trifluoroethoxy)cyclobutyl)-1H-pyrazol-4-yl)-2-(1H-pyrazol-4-yl)thiazole-4-carboxamide]	
7.06	7.35	O=C(Nc1cn([C@H]2CC[C@H](O)C2)nc1-c1ccccn1)c1ccc(-c2cn[nH]c2)o1 [Compound I-136, N-(1-((1S,3S)-3-hydroxycyclopentyl)-3-(pyridin-2-yl)-1H-pyrazol-4-yl)-5-(1H-pyrazol-4-yl)furan-2-carboxamide formate]	
6.98	7.11	O=C(Nc1cn(C2CNC2)nc1-c1ccccn1)c1ccc(-c2cn[nH]c2)o1 [Compound I-78, N-{1-(Azetidin-3-yl)-3-(pyridine-2-yl)-1H-pyrazol-4-yl}-5-(1H-pyrazol-4-yl)furan-2-carboxamide, TFA salt]	
		Cn1cc(NC(=O)c2ccc(-c3cnn(COP(=O)(O)O)c3)o2)c(-c2ccccn2)n1 [Compound I-82, Sodium [4-{5-((1-Methyl-3-(pyridine-2-yl)-1H-pyrazol-4-yl)carbamoyl)furan-2-yl}-1H-pyrazol-1-yl]methyl phosphate]	pEC50 (IL-23 (p19/p40); phosphate): 6.11; pEC50 (IL-23p19; phosphate): 6.69
7.04	7.31	O=C(Nc1cn([C@H]2C[C@@H](OCC(F)(F)F)C2)nc1-c1cccc(F)n1)c1csc(-c2cn[nH]c2)n1 [II-170, N-(3-(6-fluoropyridin-2-yl)-1-((cis)-3-(2,2,2-trifluoroethoxy)cyclobutyl)-1H-pyrazol-4-yl)-2-(1H-pyrazol-4-yl)thiazole-4-carboxamide]	
		CCO[C@H]1C[C@@H](n2cc(NC(=O)c3csc(-c4cnn(COP(=O)(O)O)c4)n3)c(-c3ccccn3)n2)C1 [II-16, (4-(4-((1-((1,3-cis)-3-ethoxycyclobutyl)-3-(pyridin-2-yl)-1H-pyrazol-4-yl)carbamoyl)thiazol-2-yl)-1H-pyrazol-1-yl)methyl phosphate bis-sodium salt]	pEC50 (IL-23 (p19/p40); phosphate bis-sodium salt): 6.28; pEC50 (IL-23p19; phosphate bis-sodium salt): 6.92
7.27	7.33	O=C(Nc1cn(CCN2CCOCC2)nc1-c1ccccn1)c1csc(-c2cn[nH]c2)n1 [II-60, N-(1-(2-morpholinoethyl)-3-(pyridin-2-yl)-1H-pyrazol-4-yl)-2-(1H-pyrazol-4-yl)thiazole-4-carboxamide]	
7.79	7.51	O=C(Nc1cn([C@H]2CC[C@H](O)CC2)nc1-c1ccccn1)c1csc(-c2cn[nH]c2)n1 [II-143, N-(1-((trans)-4-hydroxycyclohexyl)-3-(pyridin-2-yl)-1H-pyrazol-4-yl)-2-(1H-pyrazol-4-yl)thiazole-4-carboxamide]	
6.52	6.67	O=C(Nc1cn(CCOCC(F)F)nc1-c1ccccn1)c1csc(-c2cn[nH]c2)n1 [II-122, N-(1-(2-(2,2-difluoroethoxy)ethyl)-3-(pyridin-2-yl)-1H-pyrazol-4-yl)-2-(1H-pyrazol-4-yl)thiazole-4-carboxamide]	
7.25	7.46	O=C(Nc1cn([C@H]2CC[C@@H](O)C2)nc1-c1ccccn1)c1csc(-c2cn[nH]c2)n1 (relative stereo) [II-149, N-(1-((cis)-3-hydroxycyclopentyl)-3-(pyridin-2-yl)-1H-pyrazol-4-yl)-2-(1H-pyrazol-4-yl)thiazole-4-carboxamide]	
7.64	7.78	O=C(Nc1cn(C2CN(C(=O)C3CC3)C2)nc1-c1ccccn1)c1ccc(-c2cn[nH]c2)o1 [Compound I-89, N-[1-{1-(Cyclopropanecarbonyl)azetidin-3-yl}-3-(pyridine-2-yl)-1H-pyrazol-4-yl]-5-(1H-pyrazol-4-yl)furan-2-carboxamide, formate salt]	
6.71	6.78	COCCn1cc(NC(=O)c2ccc(-c3cnn(C(=O)[C@@H](NC(=O)OC(C)(C)C)C(C)C)c3)o2)c(-c2ccccn2)n1 [Compound I-20, tert-butyl (S)-(1-(4-(5-((1-(2-methoxyethyl)-3-(pyridin-2-yl)-1H-pyrazol-4-yl)carbamoyl)furan-2-yl)-1H-pyrazol-1-yl)-3-methyl-1-oxobutan-2-yl)carbamate]	
7.43	7.36	CCO[C@H]1C[C@@H](n2cc(NC(=O)c3coc(-c4cn[nH]c4)n3)c(-c3ccccn3)n2)C1 [III-4, N-(1-((1s,3s)-3-ethoxycyclobutyl)-3-(pyridin-2-yl)-1H-pyrazol-4-yl)-2-(1H-pyrazol-4-yl)oxazole-4-carboxamide]	
7.47	7.17	CC(C)C(=O)N1CC(n2cc(NC(=O)c3ccc(-c4cn[nH]c4)o3)c(-c3ccccn3)n2)C1 [Compound I-95, N-[1-{1-Isobutyrylazetidin-3-yl}-3-(pyridine-2-yl)-1H-pyrazol-4-yl]-5-(1H-pyrazol-4-yl)furan-2-carboxamide, formate salt]	
